{"source": "paper PMC10614388", "about": "“Genoprotective potential of Macaranga species phytochemical compounds on HT-29 human colorectal adenocarcinoma cell line” (Genes and Environment, 2023)", "key": {"HT-29 cells [1]": {"test_system": "HT-29 cells", "assay": "Alkaline Comet assay, protection against menadione-induced genotoxicity", "method": "(§1) Alkaline Comet Assay was used to assess strand breaks in DNA indicative of DNA damage. The experiment was carried out according to previous study by Tan et al.. […] Cells were also treated with hydrogen peroxide (H2O2) (as positive control, 1.0 mM) for 30 min. […] Following respective incubations, detached cells in the media were collected, added to trypsinize cells and centrifuged (2500 rpm/5 min). The supernatant was removed, and the pellet was washed with Ca^2+−/Mg^2+-free PBS before re-centrifugation. Pellets left at the bottom were mixed thoroughly with 80 µl of 0.6% low melting agarose (LMA) (w/v) and the mixture was pipetted onto hardened 0.6% normal melting agarose (NMA) (w/v) on the slide. Coverslips were placed to spread the mixture and the slides were left on ice for LMA to solidify. Following the removal of the coverslips, the embedded cells were lysed in lysis buffer containing 2.5 M NaCl, 100 mM Na2EDTA, 10 mM Tris, and 1% Triton X-100 for 1 h at 4 °C. Slides were soaked in electrophoresis buffer solution for 20 min at 4 °C for DNA-unwinding before electrophoresis at 300 mA, 25 V, for 20 min. Subsequently, the slides were rinsed with neutralizing buffer for 5 min and stained with […] ethidium bromide solution. Slides were analysed using Leitz Laborlux epifluorescence microscope equipped with 515 barrier filter and 560 emission filter. Fifty cells per slide were scored and the tail moment (TM) and % tail DNA (TD) were analyzed with COMET assay III (Perceptive Instruments, UK)."}, "[2]": {"design": "method as in doi:10.1016/j.phytol.2019.02.002", "settings": "cited from earlier work"}, "HT-29 cells [3]": {"test_system": "HT-29 cells", "settings": "human, 21.2 µM", "method": "as §1"}, "[4]": {"test_system": "HT-29 human colorectal adenocarcinoma cell line", "assay": "Sulforhodamine B (SRB) cytotoxicity assay", "assay_type": "cell-based", "settings": "HT-29 cells, 48 h treatment", "method": "(§2) HT-29 (HTB-38™) cells were grown in McCoy’s 5a Modified Medium (Sigma-Aldrich, St. Louis, MO, USA) while CCD-18Co (CRL-1459™) cells were grown in Eagle’s Minimum Essential Medium (EMEM; Thermo Fisher Scientific, Waltham, MA, USA). Both culture media were supplemented with 10% foetal bovine serum (FBS; Thermo Fisher Scientific, Waltham, MA, USA) and penicillin-streptomycin antibiotic (Thermo Fisher Scientific, Waltham, MA, USA). Non-essential amino acids (NEAA; Thermo Fisher Scientific, Waltham, MA, USA) were added to the completed EMEM media. Cells were maintained at 37 °C in a 5% CO2 incubator. Cells were detached via trypsinization (0.025% trypsin) after reaching confluency and were ready to be used for tests.\n(§3) Sulforhodamine B (SRB) assay was used to assess the cytotoxicity of the compounds [17]. Briefly, HT-29 and CCD-18Co cells were seeded in 96-well-plate at 1.5 × 10^5 cells/ml respectively and were incubated at 37 °C in 5% CO2 for 24 h. 100 µl of six concentrations of serially diluted compounds (0.94–30 µg/ml) were added in their respective wells. Hydrogen peroxide (10 mM) was used as the positive control. The plate was incubated for 48 h. Cells were fixed with 50 µl of 50% cold (4 °C) trichloroacetic Acid (TCA) and incubated at 4 °C for 1 h. The plates were washed five times with tap water and air-dried before staining with 100 µL of 0.4% (w/v) SRB staining solution (Sigma-Aldrich, St. Louis, MO, USA). Further incubation was done for 30 min at room temperature. Subsequently, the plates were washed three times with 1% (v/v) acetic acid to remove any unbound stains. After air-dried, 200 µL of 10 mM trizma base were added into each well and agitated for 15 min. Absorbance was read with a microplate reader with Microplate Manager® Software at the wavelength of 564 nm. All experiments were carried out in triplicates."}, "[5]": {"test_system": "CCD-18Co human normal colon cell line", "assay": "Sulforhodamine B (SRB) cytotoxicity assay", "assay_type": "cell-based", "settings": "CCD-18Co cells, 48 h treatment", "method": "as §2, §3"}, "HT-29 cells [6]": {"test_system": "HT-29 cells", "assay": "Annexin V-FITC/PI apoptosis assay (flow cytometry)", "assay_type": "cell-based, human", "method": "The mode of cell death was determined using the Annexin V-FITC/PI apoptosis assay. Cells were treated with IC50 value of the selected compound and apoptosis assessment were done at 4 h, 24 and 48 h respectively. 100µM of menadione was used as a positive control with an enriched media act as a negative control. The measurement of apoptosis is based on phosphatidylserine (PS) exposure as described previously. Briefly, cells were collected and resuspended in […] annexin V buffer containing […] FITC-conjugated annexin V and incubated for 15 min in the dark. Propidium iodide ([…] of 50 mg/ml stock in PBS) was then added and samples were subjected to flow cytometric analysis using FACS CANTO II (BD Biosciences, San Jose, CA, USA)."}, "[7]": {"test_system": "murine leukemia P-388 cells", "design": "method as in earlier work", "settings": "Tanjung et al. (2017); cited from earlier work"}, "HT-29 cells [8]": {"test_system": "HT-29 cells", "assay": "Reactive oxygen species by dihydroethidine (HE) staining (flow cytometry)", "assay_type": "cell-based, human", "method": "The generation of superoxide anion was determined as described previously. […] Cells were then centrifuged at 220 g for 5 min and resuspended in 1 ml PBS. Flow cytometry was performed using FACS CANTO II (BD Bioscience)."}, "[9]": {"settings": "pre-treated with Laevifolin A at IC50 for 20 h, followed by 4-hour menadione (100 µM)"}, "[10]": {"settings": "menadione 100 µM, 4-hour incubation"}}, "note": "Entries after “also recorded” stand apart in the source; their conditions may differ. Read-outs that look alike come from different tables or passages of the source.", "data": [{"smiles": "CC(C)=CCc1c(CCc2c(CC=C(C)C)c(O)cc(O)c2CC=C(C)C)ccc(O)c1O", "note": "[Laevifolin A]", "values": [{"measurement": "Level of DNA damage, % tail DNA", "setting": "HT-29 cells [1]; [9]", "value": "1.24 ± 0.1", "unit": "%"}, {"measurement": "Level of DNA damage, Tail moment", "setting": "HT-29 cells [1]; [9]", "value": "9.8 ± 0.9", "unit": "Arbitrary unit"}, {"measurement": "antioxidant properties, DPPH radical scavenging activity", "setting": "[2]", "value": "possesses antioxidant properties"}, {"measurement": "Level of DNA damage, % tail DNA", "setting": "HT-29 cells [3]; 30 min", "value": "6.4 ± 1.6", "unit": "%"}, {"measurement": "Level of DNA damage, Tail moment", "setting": "HT-29 cells [3]; 30 min", "value": "0.53 ± 0.1", "unit": "Arbitrary unit"}, {"measurement": "Level of DNA damage, % tail DNA", "setting": "HT-29 cells [3]; 1 h", "value": "6.0 ± 0.6", "unit": "%"}, {"measurement": "Level of DNA damage, Tail moment", "setting": "HT-29 cells [3]; 1 h", "value": "0.45 ± 0.03", "unit": "Arbitrary unit"}, {"measurement": "Level of DNA damage, % tail DNA", "setting": "HT-29 cells [3]; 4 h", "value": "4.3 ± 1.2", "unit": "%"}, {"measurement": "Level of DNA damage, Tail moment", "setting": "HT-29 cells [3]; 4 h", "value": "0.31 ± 0.1", "unit": "Arbitrary unit"}, {"measurement": "Level of DNA damage, % tail DNA", "setting": "HT-29 cells [3]; 24 h", "value": "7.8 ± 0.7", "unit": "%"}, {"measurement": "Level of DNA damage, Tail moment", "setting": "HT-29 cells [3]; 24 h", "value": "0.69 ± 0.1", "unit": "Arbitrary unit"}, {"measurement": "IC50", "setting": "[4]; Homo sapiens, read-out: IC50", "value": 21.2, "unit": "µM"}, {"measurement": "IC50", "setting": "[5]", "value": 59.5, "unit": "µM"}, {"measurement": "induction of apoptotic cells", "setting": "HT-29 cells [6]; Laevifolin A at IC50 (21.2 µM), 4 h, 24 and 48 h, compared to negative control", "value": "no induction of apoptosis; also recorded: no significant induction of apoptotic cells; also recorded: did not induce apoptosis"}, {"measurement": "IC50", "setting": "[7]", "value": "4.3 ± 0.6", "unit": "µM"}, {"measurement": "percentage of cells with HE uptake (generation of ROS)", "setting": "HT-29 cells [8]; Laevifolin A at IC50 (21.2 µM), compared with negative control", "value": "no significant increase; also recorded: no significant increase or decrease of ROS"}]}, {"smiles": "CC(C)=CCc1cc(CCc2c(CC=C(C)C)c(O)cc(O)c2CC=C(C)C)cc(O)c1O", "note": "[Laevifolin B]", "values": [{"measurement": "IC50", "setting": "[4]", "value": "no IC50 values were obtained"}, {"measurement": "IC50", "setting": "[7]", "value": "12.3 ± 0.6", "unit": "µM"}]}, {"smiles": "CC(C)=CCc1cc(CCc2c(CC=C(C)C)c(O)cc(O)c2CC=C(C)C)ccc1O", "note": "[Malayheyneiin A]", "values": [{"measurement": "IC50", "setting": "[4]", "value": "no IC50 values were obtained"}]}, {"smiles": "CC1=CC(=O)c2ccccc2C1=O", "note": "[Menadione, reference compound]", "values": [{"measurement": "Level of DNA damage, % tail DNA", "setting": "HT-29 cells [1]; [10]", "value": "*23.4 ± 3.1%"}, {"measurement": "Level of DNA damage, Tail moment", "setting": "HT-29 cells [1]; [10]", "value": "*7.00 ± 0.8 Arbitrary unit"}, {"measurement": "induction of apoptotic cells", "setting": "HT-29 cells [6]; positive control at 100 µM", "value": "significant (p < 0.05) increase of apoptotic cells"}, {"measurement": "percentage of cells with HE uptake (generation of ROS)", "setting": "HT-29 cells [8]; menadione at 100 µM, positive control", "value": "22.6 ± 1.0", "unit": "%"}]}]}
